Source: patent publication US6579899B1, “Composition for treatment of stress” (Massachusetts Institute of Technology, priority 1998, dated 2003)
Counter-ions that a name gives are not always drawn.

Experiments:
Sprague-Dawley rats = assay: stress related eating (clamp tightened on the tail) in rats; assay type: in vivo, rat; conditions: for Stress Eating, relative amount with 0 mg/kg as 100% / Stressed Rats, average amount of food consumed per rat / Stress Eating / Control Rats, average amount of food consumed per rat: 8 hours; for Stressed Rats, average amount of food consumed per rat: clamp tightened on the tail; for Stress Eating: stressed minus control rats; for stress-related eating: stressed rats, 1-10 mg/kg; for Control Rats, average amount of food consumed per rat: untightened clamp
Protocol: The effect of the hydrochloride salt of 6-chloro-2-(1-piperazinyl)pyrazine (MK-212, which is obtained from Merck & Co., Inc. Whitehouse Station, N.J.), on stress related eating in animals is determined through the observation of the effect of experimental compounds on stress-related eating in adult Sprague-Dawley rats. These rats are widely used as a recognized animal model useful in predicting the effect of serotoninergic drugs in humans.
In these experiments, a group of 5 adult female and 5 adult male Sprague-Dawley rats weighing between 200 and 250 grams each are used as control animals. An untightened clamp is placed on the tail of these animals. The untightened clamp provides the unstressed condition. Each animal is placed in an individual cage and allowed free access to food. The amount of food consumed is determined at 2, 4 and 8 hours after the initiation of the trial. A similar group of rats has a clamp tightened on the tail. The amount of food consumed by this stressed group of rats is shown in the 0 mg/kg column. […] similar groups of stressed rats are injected with 1, 2, 5, or 10 mg/kg body weight of MK-212 one hour before initiation of the experiment.
The relative amounts of stress eating with the amount at 0 mg/kg MK-212 as 100% is also shown in the Stress Eating row. The preferred daily dose of MK-212 is about 1 mg/kg body weight to about 10 mg/kg body weight.

obese, stressed patients [1] = assay: questionnaire rating tendency to eat in response to emotional and stressful triggers; assay type: in vivo, human; parameters: Emotional Triggers: scale not given here
Excerpt: (§1) A subgroup of obese individuals is identified, which individuals describe themselves as being unable to control their eating and who attempt to continue on a weight-reducing diet when experiencing emotional distress. […]
(§2) Objective measurements of emotional distress are made in some patients using the CES-D (Center for […] Depression Form) test, which measures current levels of emotional distress (Radloff, et al., The CES-D Scale: A Self Report Depression Scale for Research in the General Population Applied Psychological Measurement 1: 385-401, 1977); and the POMS (Profile of Mood States test, that assesses tension, depression, anger and confusion (McNair, et al., Profile of Mood States Manual;San Diego: Educational and Industrial Testing Service, 1971); both of these references are hereby incorporated by reference in their entirety. These tests are also given monthly during the treatment period. At the same time, patients also complete questionnaires that ask the patients to rate their appetite and hunger, and also to rate their tendency to eat in response to a variety of emotional and stressful triggers. The patients are also weighed monthly.

obese, stressed patients [2] = assay: CES-D test of current levels of emotional distress in patients; assay type: in vivo, human
Excerpt: as §1, §2

obese, stressed patients [3] = assay: questionnaire rating appetite and hunger; assay type: in vivo, human; parameters: Appetite and Cravings: scale not given here
Excerpt: as §1, §2

[4] = 1 mg/kg injected one hour before
[5] = 2 mg/kg injected one hour before
[6] = 5 mg/kg injected one hour before
[7] = 10 mg/kg injected one hour before
[8] = patient nine, 100 mg/day in divided doses, Month 1, baseline 9
[9] = patient nine, 100 mg/day in divided doses, Month 2, baseline 9
[10] = patient nine, 100 mg/day in divided doses, Month 3, baseline 9
[11] = patient nine, 100 mg/day in divided doses, Month 4, baseline 9

Molecule	Stress Eating, relative amount with 0 mg/kg as 100% (Sprague-Dawley rats; 1 mg/kg)	Stress Eating, relative amount with 0 mg/kg as 100% (Sprague-Dawley rats; 2 mg/kg)	Stress Eating, relative amount with 0 mg/kg as 100% (Sprague-Dawley rats; 5 mg/kg)	Stress Eating, relative amount with 0 mg/kg as 100% (Sprague-Dawley rats; 10 mg/kg)	Stressed Rats, average amount of food consumed per rat (Sprague-Dawley rats; [4]) [g]	Stressed Rats, average amount of food consumed per rat (Sprague-Dawley rats; [5]) [g]	Stressed Rats, average amount of food consumed per rat (Sprague-Dawley rats; [6]) [g]	Stressed Rats, average amount of food consumed per rat (Sprague-Dawley rats; [7]) [g]	Stress Eating (Sprague-Dawley rats; 1 mg/kg) [g]	Stress Eating (Sprague-Dawley rats; 2 mg/kg) [g]	Stress Eating (Sprague-Dawley rats; 5 mg/kg) [g]	Stress Eating (Sprague-Dawley rats; 10 mg/kg) [g]	stress-related eating (Sprague-Dawley rats)	Control Rats, average amount of food consumed per rat (Sprague-Dawley rats; [4]) [g]	Control Rats, average amount of food consumed per rat (Sprague-Dawley rats; [5]) [g]	Control Rats, average amount of food consumed per rat (Sprague-Dawley rats; [6]) [g]	Control Rats, average amount of food consumed per rat (Sprague-Dawley rats; [7]) [g]	further results
(S)-2-(Chloro-5-fluoro-indol-1-yl)-1-methylethylamine [Ro 60-0332/ORG 35035]	(103%)	(28%)	(17%)	(13%)	4.87	2.19	1.83	1.74	3.58	0.99	0.60	0.46	reduces stress-related eating	1.29	1.20	1.21	1.28	
CCN[C@@H](C)Cc1cccc(C(F)(F)F)c1 [dexfenfluramine hydrochloride]																		Emotional Triggers (obese, stressed patients [1]; patient eleven, 30 mg/day, Month 1, baseline 30): 12; Emotional Triggers (obese, stressed patients [1]; patient eleven, 30 mg/day, Month 2, baseline 30): 13; Emotional Triggers (obese, stressed patients [1]; patient eleven, 30 mg/day, Month 3, baseline 30): 5; Mood Scores CES-D (obese, stressed patients [2]; patient eleven, 30 mg/day, Month 1, baseline 19): 5; Mood Scores CES-D (obese, stressed patients [2]; patient eleven, 30 mg/day, Month 2, baseline 19): 2; Mood Scores CES-D (obese, stressed patients [2]; patient eleven, 30 mg/day, Month 3, baseline 19): 3; Appetite and Cravings (obese, stressed patients [3]; patient eleven, 30 mg/day, Month 1, baseline 9): 6; Appetite and Cravings (obese, stressed patients [3]; patient eleven, 30 mg/day, Month 2, baseline 9): 8; Appetite and Cravings (obese, stressed patients [3]; patient eleven, 30 mg/day, Month 3, baseline 9): 3; Appetite and Cravings (obese, stressed patients [3]; patient eleven, 30 mg/day, Month 4, baseline 9): 5
Cc1ccc2c(c1)-c1c(ccn1C[C@H](C)N)C2(C)C [Ro 60-175/ORG 35030, (S)-2-(4,4,7-trimethyl-1,4-dihydro-indol (1,2-B)pyrrol-1-yl)-1-methylethylamine]	(74%)	(4%)	(3%)	(1%)	3.66	1.43	1.30	1.16	2.38	0.13	0.10	0.03	reduces stress related eating	1.28	1.30	1.20	1.13	
O=c1n(CCCN2CCN(c3cccc(Cl)c3)CC2)nc2ccccn12 [trazodone hydrochloride]																		Emotional Triggers (obese, stressed patients [1]; patient nine, 100 mg/day in divided doses, Month 1, baseline 12): 12; Emotional Triggers (obese, stressed patients [1]; patient nine, 100 mg/day in divided doses, Month 2, baseline 12): 9; Emotional Triggers (obese, stressed patients [1]; patient nine, 100 mg/day in divided doses, Month 3, baseline 12): 5; Emotional Triggers (obese, stressed patients [1]; patient nine, 100 mg/day in divided doses, Month 4, baseline 12): 3; Mood Scores CES-D (obese, stressed patients [2]; [8]): 16; Mood Scores CES-D (obese, stressed patients [2]; [9]): 16; Mood Scores CES-D (obese, stressed patients [2]; [10]): 10; Mood Scores CES-D (obese, stressed patients [2]; [11]): 1; Appetite and Cravings (obese, stressed patients [3]; [8]): 5; Appetite and Cravings (obese, stressed patients [3]; [9]): 5; Appetite and Cravings (obese, stressed patients [3]; [10]): 3; Appetite and Cravings (obese, stressed patients [3]; [11]): 5
COCCCC/C(=N\OCCN)c1ccc(C(F)(F)F)cc1 [fluvoxamine maleate]																		Emotional Triggers (obese, stressed patients [1]; patient three, 50 rising to 150 mg/day, Month 1, baseline 34): 27; Emotional Triggers (obese, stressed patients [1]; patient three, 50 rising to 150 mg/day, Month 2, baseline 34): 30; Emotional Triggers (obese, stressed patients [1]; patient three, 50 rising to 150 mg/day, Month 3, baseline 34): 20; Emotional Triggers (obese, stressed patients [1]; patient three, 50 rising to 150 mg/day, Month 4, baseline 34): 24; Mood Scores CES-D (obese, stressed patients [2]; patient three, 50 rising to 150 mg/day, Month 1, baseline 23): 26; Mood Scores CES-D (obese, stressed patients [2]; patient three, 50 rising to 150 mg/day, Month 2, baseline 23): 16; Mood Scores CES-D (obese, stressed patients [2]; patient three, 50 rising to 150 mg/day, Month 3, baseline 23): 15; Mood Scores CES-D (obese, stressed patients [2]; patient three, 50 rising to 150 mg/day, Month 4, baseline 23): 17; Appetite and Cravings (obese, stressed patients [3]; patient three, 50 rising to 150 mg/day, Month 1, baseline 18): 16; Appetite and Cravings (obese, stressed patients [3]; patient three, 50 rising to 150 mg/day, Month 2, baseline 18): 11; Appetite and Cravings (obese, stressed patients [3]; patient three, 50 rising to 150 mg/day, Month 3, baseline 18): 12; Appetite and Cravings (obese, stressed patients [3]; patient three, 50 rising to 150 mg/day, Month 4, baseline 18): 14
Clc1cncc(N2CCNCC2)n1 [MK-212, 6-chloro-2-(1-piperazinyl)pyrazine]	(83%)	(76%)	(25%)	(0%)	4.14	3.78	2.01	0.97	2.82	2.58	0.85	0.0	reduces stress-related eating	1.32	1.20	1.16	1.03	
COc1ccc(C(CN(C)C)C2(O)CCCCC2)cc1 (stereo not shown) [venlafaxine hydrochloride]																		Emotional Triggers (obese, stressed patients [1]; patient ten, 75 rising to 150 mg/day, Month 1, baseline 14): 9; Emotional Triggers (obese, stressed patients [1]; patient ten, 75 rising to 150 mg/day, Month 2, baseline 14): 4; Emotional Triggers (obese, stressed patients [1]; patient ten, 75 rising to 150 mg/day, Month 3, baseline 14): 6; Emotional Triggers (obese, stressed patients [1]; patient ten, 75 rising to 150 mg/day, Month 4, baseline 14): 2; Mood Scores CES-D (obese, stressed patients [2]; patient ten, 75 rising to 150 mg/day, Month 1, baseline 8): 4; Mood Scores CES-D (obese, stressed patients [2]; patient ten, 75 rising to 150 mg/day, Month 2, baseline 8): 6; Mood Scores CES-D (obese, stressed patients [2]; patient ten, 75 rising to 150 mg/day, Month 3, baseline 8): 2; Mood Scores CES-D (obese, stressed patients [2]; patient ten, 75 rising to 150 mg/day, Month 4, baseline 8): 2; Appetite and Cravings (obese, stressed patients [3]; patient ten, 75 rising to 150 mg/day, Month 1, baseline 10): 6; Appetite and Cravings (obese, stressed patients [3]; patient ten, 75 rising to 150 mg/day, Month 2, baseline 10): 7; Appetite and Cravings (obese, stressed patients [3]; patient ten, 75 rising to 150 mg/day, Month 3, baseline 10): 3; Appetite and Cravings (obese, stressed patients [3]; patient ten, 75 rising to 150 mg/day, Month 4, baseline 10): 1
